Test results: ChEMBL document CHEMBL3885881, “DrugMatrix”

Species on record: Rattus norvegicus
Assay: DrugMatrix - Regimen: Daily Repeat
Format: toxicity, organism-based, Sprague-Dawley
Design: regimen Daily Repeat, gender Male, age 6-8 weeks
Conditions: in vivo, po, route oral GAVAGE, vehicle .5 % CMC; for ABSOLUTE BASOPHIL / ABSOLUTE EOSINOPHIL / ABSOLUTE LYMPHOCYTE / ABSOLUTE MONOCYTE / ABSOLUTE SEGMENTED NEUTROPHIL / BASOPHIL / EOSINOPHIL / ERYTHROCYTE COUNT / HEMATOCRIT / HEMOGLOBIN / LEUKOCYTE COUNT / LYMPHOCYTE / MEAN CORPUSCULAR HEMOGLOBIN / MEAN CORPUSCULAR HEMOGLOBIN CONCENTRATION / MEAN CORPUSCULAR VOLUME / MONOCYTE / NEUTROPHIL / NUCLEATED RED BLOOD CELLS / PLATELET COUNT: tissue Blood; for ALANINE AMINOTRANSFERASE / ALBUMIN / ALKALINE PHOSPHATASE / ASPARTATE AMINOTRANSFERASE / BLOOD UREA NITROGEN / CARBON DIOXIDE / CHLORIDE / CHOLESTEROL / CREATINE PHOSPHOKINASE / CREATININE / GLUCOSE / LACTATE DEHYDROGENASE / LIPASE / PHOSPHORUS / POTASSIUM / SODIUM / TOTAL BILIRUBIN / TOTAL PROTEIN / URIC ACID: tissue Plasma
[1] = 50 mg/kg, 72 h, dose level Low, time 3 day
[2] = 50 mg/kg, 120 h, dose level Low, time 5 day
[3] = 1500 mg/kg, 72 h, dose level High, time 3 day
[4] = 1500 mg/kg, 120 h, dose level High, time 5 day

Compound: CC[C@H]1OC(=O)[C@H](C)[C@@H](O[C@H]2C[C@@](C)(OC)[C@@H](O)[C@H](C)O2)[C@H](C)[C@@H](O[C@@H]2O[C@H](C)C[C@H](N(C)C)[C@H]2O)[C@](C)(O)C[C@@H](C)C(=O)[C@H](C)[C@@H](O)[C@]1(C)O [ERYTHROMYCIN]
- ABSOLUTE BASOPHIL [1]: 0 CELLS/uL
- ABSOLUTE EOSINOPHIL [1]: 38.33 CELLS/uL
- ABSOLUTE LYMPHOCYTE [1]: 15941.33 CELLS/uL
- ABSOLUTE MONOCYTE [1]: 389.67 CELLS/uL
- ABSOLUTE SEGMENTED NEUTROPHIL [1]: 1297.33 CELLS/uL
- BASOPHIL [1]: 0%
- EOSINOPHIL [1]: 0.33%
- ERYTHROCYTE COUNT [1]: 5.45 x10E6/uL
- HEMATOCRIT [1]: 34.13%
- HEMOGLOBIN [1]: 13.53 G/DL
- LEUKOCYTE COUNT [1]: 17.67 x10E3/uL
- LYMPHOCYTE [1]: 89.67%
- MEAN CORPUSCULAR HEMOGLOBIN [1]: 24.9 pg
- MEAN CORPUSCULAR HEMOGLOBIN CONCENTRATION [1]: 39.67 G/DL
- MEAN CORPUSCULAR VOLUME [1]: 62.7 fL
- MONOCYTE [1]: 2%
- NEUTROPHIL [1]: 8%
- NUCLEATED RED BLOOD CELLS [1]: 0 /100WBC
- PLATELET COUNT [1]: 1119.67 x10E3/uL
- ALANINE AMINOTRANSFERASE [1]: 49.33 u/L
- ALBUMIN [1]: 4.3 G/DL
- ALKALINE PHOSPHATASE [1]: 366 u/L
- ASPARTATE AMINOTRANSFERASE [1]: 81 u/L
- BLOOD UREA NITROGEN [1]: 14.67 mg/dL
- CARBON DIOXIDE [1]: 28.33 mmol/L
- CHLORIDE [1]: 99.33 MEQ/L
- CHOLESTEROL [1]: 80 mg/dL
- CREATINE PHOSPHOKINASE [1]: 238.67 u/L
- CREATININE [1]: 0.19 mg/dL
- GLUCOSE [1]: 154 mg/dL
- LACTATE DEHYDROGENASE [1]: 152.67 u/L
- LIPASE [1]: 9 u/L
- PHOSPHORUS [1]: 12 mg/dL
- POTASSIUM [1]: 6.83 MEQ/L
- SODIUM [1]: 143.9 MEQ/L
- TOTAL BILIRUBIN [1]: 0.27 mg/dL
- TOTAL PROTEIN [1]: 6 G/DL
- URIC ACID [1]: 1.57 mg/dL
- ABSOLUTE BASOPHIL [2]: 0 CELLS/uL
- ABSOLUTE EOSINOPHIL [2]: 0 CELLS/uL
- ABSOLUTE LYMPHOCYTE [2]: 13393.67 CELLS/uL
- ABSOLUTE MONOCYTE [2]: 52.33 CELLS/uL
- ABSOLUTE SEGMENTED NEUTROPHIL [2]: 520.67 CELLS/uL
- BASOPHIL [2]: 0%
- EOSINOPHIL [2]: 0%
- ERYTHROCYTE COUNT [2]: 4.88 x10E6/uL
- HEMATOCRIT [2]: 31.9%
- HEMOGLOBIN [2]: 12.4 G/DL
- LEUKOCYTE COUNT [2]: 13.97 x10E3/uL
- LYMPHOCYTE [2]: 96%
- MEAN CORPUSCULAR HEMOGLOBIN [2]: 25.47 pg
- MEAN CORPUSCULAR HEMOGLOBIN CONCENTRATION [2]: 38.87 G/DL
- MEAN CORPUSCULAR VOLUME [2]: 65.47 fL
- MONOCYTE [2]: 0.33%
- NEUTROPHIL [2]: 3.67%
- NUCLEATED RED BLOOD CELLS [2]: 1 /100WBC
- PLATELET COUNT [2]: 1227.33 x10E3/uL
- ALANINE AMINOTRANSFERASE [2]: 45 u/L
- ALBUMIN [2]: 4.23 G/DL
- ALKALINE PHOSPHATASE [2]: 454.67 u/L
- ASPARTATE AMINOTRANSFERASE [2]: 86.33 u/L
- BLOOD UREA NITROGEN [2]: 15.33 mg/dL
- CARBON DIOXIDE [2]: 25.67 mmol/L
- CHLORIDE [2]: 104 MEQ/L
- CHOLESTEROL [2]: 39 mg/dL
- CREATINE PHOSPHOKINASE [2]: 315.67 u/L
- CREATININE [2]: 0.19 mg/dL
- GLUCOSE [2]: 170 mg/dL
- LACTATE DEHYDROGENASE [2]: 199 u/L
- LIPASE [2]: 7.67 u/L
- PHOSPHORUS [2]: 10.83 mg/dL
- POTASSIUM [2]: 6.66 MEQ/L
- SODIUM [2]: 143.43 MEQ/L
- TOTAL BILIRUBIN [2]: 0.27 mg/dL
- TOTAL PROTEIN [2]: 6.13 G/DL
- URIC ACID [2]: 1.5 mg/dL
- ABSOLUTE BASOPHIL [3]: 0 CELLS/uL
- ABSOLUTE EOSINOPHIL [3]: 0 CELLS/uL
- ABSOLUTE LYMPHOCYTE [3]: 15179 CELLS/uL
- ABSOLUTE MONOCYTE [3]: 91.33 CELLS/uL
- ABSOLUTE SEGMENTED NEUTROPHIL [3]: 1229.67 CELLS/uL
- BASOPHIL [3]: 0%
- EOSINOPHIL [3]: 0%
- ERYTHROCYTE COUNT [3]: 6.59 x10E6/uL
- HEMATOCRIT [3]: 42.83%
- HEMOGLOBIN [3]: 16.43 G/DL
- LEUKOCYTE COUNT [3]: 16.5 x10E3/uL
- LYMPHOCYTE [3]: 91%
- MEAN CORPUSCULAR HEMOGLOBIN [3]: 24.97 pg
- MEAN CORPUSCULAR HEMOGLOBIN CONCENTRATION [3]: 38.43 G/DL
- MEAN CORPUSCULAR VOLUME [3]: 64.9 fL
- MONOCYTE [3]: 0.67%
- NEUTROPHIL [3]: 8.33%
- NUCLEATED RED BLOOD CELLS [3]: 0 /100WBC
- PLATELET COUNT [3]: 1070 x10E3/uL
- ALANINE AMINOTRANSFERASE [3]: 65.33 u/L
- ALBUMIN [3]: 4.03 G/DL
- ALKALINE PHOSPHATASE [3]: 390 u/L
- ASPARTATE AMINOTRANSFERASE [3]: 86.33 u/L
- BLOOD UREA NITROGEN [3]: 9.33 mg/dL
- CARBON DIOXIDE [3]: 34 mmol/L
- CHLORIDE [3]: 100 MEQ/L
- CHOLESTEROL [3]: 106.33 mg/dL
- CREATINE PHOSPHOKINASE [3]: 328 u/L
- CREATININE [3]: 0.16 mg/dL
- GLUCOSE [3]: 137.67 mg/dL
- LACTATE DEHYDROGENASE [3]: 131 u/L
- LIPASE [3]: 9 u/L
- PHOSPHORUS [3]: 12.3 mg/dL
- POTASSIUM [3]: 6.72 MEQ/L
- SODIUM [3]: 144.47 MEQ/L
- TOTAL BILIRUBIN [3]: 0.1 mg/dL
- TOTAL PROTEIN [3]: 6.17 G/DL
- URIC ACID [3]: 2.13 mg/dL
- ABSOLUTE BASOPHIL [4]: 0 CELLS/uL
- ABSOLUTE EOSINOPHIL [4]: 0 CELLS/uL
- ABSOLUTE LYMPHOCYTE [4]: 14587.33 CELLS/uL
- ABSOLUTE MONOCYTE [4]: 796.67 CELLS/uL
- ABSOLUTE SEGMENTED NEUTROPHIL [4]: 1949.33 CELLS/uL
- BASOPHIL [4]: 0%
- EOSINOPHIL [4]: 0%
- ERYTHROCYTE COUNT [4]: 6.53 x10E6/uL
- HEMATOCRIT [4]: 39.67%
- HEMOGLOBIN [4]: 15.9 G/DL
- LEUKOCYTE COUNT [4]: 17.33 x10E3/uL
- LYMPHOCYTE [4]: 84.67%
- MEAN CORPUSCULAR HEMOGLOBIN [4]: 24.4 pg
- MEAN CORPUSCULAR HEMOGLOBIN CONCENTRATION [4]: 40.13 G/DL
- MEAN CORPUSCULAR VOLUME [4]: 60.83 fL
- MONOCYTE [4]: 4.33%
- NEUTROPHIL [4]: 11%
- NUCLEATED RED BLOOD CELLS [4]: 0 /100WBC
- PLATELET COUNT [4]: 1382.33 x10E3/uL
- ALANINE AMINOTRANSFERASE [4]: 67 u/L
- ALBUMIN [4]: 3.7 G/DL
- ALKALINE PHOSPHATASE [4]: 311.67 u/L
- ASPARTATE AMINOTRANSFERASE [4]: 107.33 u/L
- BLOOD UREA NITROGEN [4]: 13.67 mg/dL
- CARBON DIOXIDE [4]: 29 mmol/L
- CHLORIDE [4]: 100 MEQ/L
- CHOLESTEROL [4]: 107.67 mg/dL
- CREATINE PHOSPHOKINASE [4]: 532.67 u/L
- CREATININE [4]: 0.21 mg/dL
- GLUCOSE [4]: 130.33 mg/dL
- LACTATE DEHYDROGENASE [4]: 259.67 u/L
- LIPASE [4]: 9.33 u/L
- PHOSPHORUS [4]: 9.97 mg/dL
- POTASSIUM [4]: 9.14 MEQ/L
- SODIUM [4]: 141.8 MEQ/L
- TOTAL BILIRUBIN [4]: 0.1 mg/dL
- TOTAL PROTEIN [4]: 6.13 G/DL
- URIC ACID [4]: 1.27 mg/dL
